Legend:
human thrombin = assay: test b) C2 (PT) against human thrombin; format: biochemical; details: PT = prothrombin time
Method: b) Measurement of Thrombin Inhibition
The procedure of method a) is repeated except that human thrombin (0.005 Units/ml) and the chromogenic substrate S-2238 (KabiVitrum AB, 7 μM) are employed.
c) Measurement of Anticoagulant Activity
An in vitro assay whereby human, rat or rabbit venous blood is collected and added directly to a sodium citrate solution (3.2 g/100 ml, 9 parts blood to 1 part citrate solution). Blood plasma is prepared by centrifugation (1000 g, 15 minutes) and stored at 2-4° C. Conventional prothrombin time (PT) tests are carried out in the presence of various concentrations of a test compound and the concentration of test compound required to double the clotting time, hereinafter referred to as CT2, is determined. In the PT test, the test compound and blood plasma are incubated at 37° C. for 10 minutes. Tissue thromboplastin with calcium (Sigma Limited, Poole, England) is added and fibrin formation and the time required for a clot to form are determined.

Compound | melting point [°C] | C2 (PT) against human thrombin (human thrombin) [µM]
O=C(c1ccc(-c2ccnnc2)cc1)N1CCN(S(=O)(=O)c2cc3cc(Cl)ccc3[nH]2)CC1 [Example 5, 1-(5-Chloroindol-2-ylsulphonyl)-4-[4-(4-pyridazinyl)benzoyl]piperazine] | 170 to 172 | –
O=C(c1ccc(-c2ccncn2)cc1)N1CCN(S(=O)(=O)c2cc3cc(Cl)ccc3[nH]2)CC1 [Example 4, 1-(5-Chloroindol-2-ylsulphonyl)-4-[4-(4-pyrimidyl)benzoyl]piperazine] | 229 to 230 | –
O=C(c1ccc(-c2ccncc2)cc1)N1CCN(S(=O)(=O)c2cc3ccc(Cl)cc3[nH]2)CC1 [Example 7, 1-(6-chloroindol-2-ylsulphonyl)-4-[4-(4-pyridyl)benzoyl]piperazine] | 231 to 234 | –
O=C(c1ccc(-c2ccncc2)cc1)N1CCN(S(=O)(=O)c2nc3ccc(Cl)cc3[nH]2)CC1 [Example 8, 1-(5-chlorobenzimidazol-2-ylsulphonyl)-4-[4-(4-pyridyl)benzoyl]piperazine] | 242 to 244 | –
O=C(c1ccc(-c2ccncc2)cc1)N1CCN(S(=O)(=O)c2cc3cc(Cl)ccc3[nH]2)CC1 [Example 3, 1-(5-chloroindol-2-ylsulphonyl)-4-[4-(4-pyridyl)benzoyl]piperazine] | 185 to 188 | –
O=C(c1ccc(-c2ccncc2)cc1)N1CCN(S(=O)(=O)c2cc3cc(Cl)ccc3o2)CC1 [Example 1, 1-(5-Chlorobenzo[b]furan-2-ylsulphonyl)-4-[4-(4-pyridyl)benzoyl]piperazine] | – | 15
O=C(c1ccc(-n2ccnc2)cc1)N1CCN(S(=O)(=O)c2cc3cc(Cl)ccc3[nH]2)CC1 [Example 6, 1-(5-Chloroindol-2-ylsulphonyl)-4-[4-(1-imidazolyl)benzoyl]piperazine] | 155 to 165 | –

From patent US6753331B1, “Heterocyclic derivatives which inhibit factor Xa” (AstraZeneca AB, priority 1998, dated 2004)
